Activity, Ki and EC50 data for 18 compounds are collected here from ChEMBL document CHEMBL1145366, “A new class of histamine H3 receptor antagonists derived from ligand based design” (Bioorg Med Chem Lett, 2007).

Experiment [1] has as its target T1, Histamine H3 receptor (Homo sapiens, UniProt Q9Y5N1). Kind of experiment: Displacement of [3H](R)-alpha-methylhistamine from human histamine H3 receptor at 10 uM.
Experiment [2] has as its target T1, Histamine H3 receptor. Briefly: Binding affinity to human histamine H3 receptor.
The target in experiment [3] is Histamine H1 receptor (Homo sapiens) (UniProt P35367). Kind of experiment: Displacement of [3H]pyrilamine from human histamine H1 receptor at 10 uM.
Sequence of Histamine H1 receptor (Homo sapiens) (P35367 whole entry): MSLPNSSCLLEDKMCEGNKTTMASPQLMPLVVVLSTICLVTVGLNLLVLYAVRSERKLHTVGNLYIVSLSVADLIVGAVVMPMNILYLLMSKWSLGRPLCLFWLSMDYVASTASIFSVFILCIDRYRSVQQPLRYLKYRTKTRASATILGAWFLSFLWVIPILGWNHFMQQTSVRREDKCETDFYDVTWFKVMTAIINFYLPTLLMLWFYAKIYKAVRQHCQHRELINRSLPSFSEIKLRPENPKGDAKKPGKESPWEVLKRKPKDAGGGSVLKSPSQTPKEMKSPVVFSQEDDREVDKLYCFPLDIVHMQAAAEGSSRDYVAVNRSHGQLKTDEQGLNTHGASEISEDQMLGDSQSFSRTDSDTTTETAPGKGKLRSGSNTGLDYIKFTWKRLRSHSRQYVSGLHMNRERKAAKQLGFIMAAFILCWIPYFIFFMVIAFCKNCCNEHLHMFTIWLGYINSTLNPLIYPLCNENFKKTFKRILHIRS
The target in experiment [4] is Histamine H2 receptor (Homo sapiens) (UniProt P25021). Briefly: Displacement of [3H]tiotidine from human histamine H2 receptor at 10 uM.
Sequence of Histamine H2 receptor (Homo sapiens) (P25021 whole entry): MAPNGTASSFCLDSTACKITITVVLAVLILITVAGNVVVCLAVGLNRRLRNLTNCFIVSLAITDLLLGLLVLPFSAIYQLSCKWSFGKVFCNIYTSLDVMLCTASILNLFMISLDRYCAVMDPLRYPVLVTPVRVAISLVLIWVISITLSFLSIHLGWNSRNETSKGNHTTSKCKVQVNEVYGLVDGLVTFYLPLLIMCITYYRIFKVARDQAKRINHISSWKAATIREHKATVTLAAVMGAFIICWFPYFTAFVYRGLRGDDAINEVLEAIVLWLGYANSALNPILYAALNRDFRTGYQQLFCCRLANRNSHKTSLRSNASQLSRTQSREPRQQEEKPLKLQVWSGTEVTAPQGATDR
The target of experiment [5] is T1, Histamine H3 receptor. Kind of experiment: Inverse agonist activity at human histamine H3 receptor by GTP gammaS assay. In kind it is functional.
Experiment [6] has as its target Histamine H3 receptor (Rattus norvegicus, UniProt Q9QYN8). Kind of experiment: Binding affinity to rat histamine H3 receptor.

T1 sequence (Q9Y5N1 whole entry): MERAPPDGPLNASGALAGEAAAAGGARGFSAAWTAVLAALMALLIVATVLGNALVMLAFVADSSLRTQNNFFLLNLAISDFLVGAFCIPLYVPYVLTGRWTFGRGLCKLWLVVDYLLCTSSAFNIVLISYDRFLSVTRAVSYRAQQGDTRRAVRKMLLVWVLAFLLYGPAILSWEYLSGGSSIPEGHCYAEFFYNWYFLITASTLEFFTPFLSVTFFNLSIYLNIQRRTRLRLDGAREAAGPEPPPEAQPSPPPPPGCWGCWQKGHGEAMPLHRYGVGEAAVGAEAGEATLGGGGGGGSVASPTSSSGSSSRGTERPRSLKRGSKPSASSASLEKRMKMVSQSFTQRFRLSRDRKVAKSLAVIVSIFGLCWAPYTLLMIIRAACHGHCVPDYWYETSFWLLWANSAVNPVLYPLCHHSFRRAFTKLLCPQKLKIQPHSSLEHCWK
Sequence of Histamine H3 receptor (Rattus norvegicus, UniProt Q9QYN8) (Q9QYN8 whole entry): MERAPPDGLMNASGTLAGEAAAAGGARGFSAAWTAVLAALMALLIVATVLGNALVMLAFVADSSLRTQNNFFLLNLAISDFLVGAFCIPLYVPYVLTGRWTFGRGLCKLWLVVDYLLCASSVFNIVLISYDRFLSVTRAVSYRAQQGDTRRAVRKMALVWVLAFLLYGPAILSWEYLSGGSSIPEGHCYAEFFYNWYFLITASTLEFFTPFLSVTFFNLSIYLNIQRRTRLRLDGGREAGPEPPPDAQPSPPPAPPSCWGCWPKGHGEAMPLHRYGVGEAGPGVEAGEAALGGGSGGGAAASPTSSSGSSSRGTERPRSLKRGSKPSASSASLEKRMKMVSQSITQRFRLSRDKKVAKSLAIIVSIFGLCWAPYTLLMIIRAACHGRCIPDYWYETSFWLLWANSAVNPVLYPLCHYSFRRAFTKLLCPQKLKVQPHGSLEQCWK

In the case of `COC(=O)c1ccc(COc2ccc(Nc3ncnc4ccccc34)c(CN(C)C)c2)cc1`, the Activity in experiment [1] turned out to be 31%.

`CN(C)C(=O)c1cc(OCCCN2CCOCC2)ccc1OCc1ccccc1Cl`: the Ki in experiment [2] is 1.1 µM.

`CN(C)Cc1cc(OCC2CCCN(C)C2)ccc1OCc1ccccc1Cl` (stereo unspecified) showed a Ki in experiment [2] of 0.15 µM.

Turning to `CN(C)Cc1cc(OCCCN2CCCCC2)ccc1Nc1ncnc2ccccc12`, the Activity in experiment [3] was -2.5%; in experiment [4] it was 2.4%. This compound gave an EC50 in experiment [5] of 0.0002 µM. Besides, the figures for the Ki in experiment [6] and in experiment [2] were 0.0098 µM and 0.0003 µM, respectively.

`CC(C)N1CCC(Oc2ccc(OCc3ccccc3Cl)c(CN(C)C)c2)C1` (stereo unspecified) gave an inhibitory constant (Ki) in experiment [2] of 0.088 µM.

For the compound `CN(C)C(=O)c1cc(OCCCN2CCCCC2)ccc1OCc1ccccc1Cl`, in experiment [3], the Activity turned out to be 8%. Besides, in experiment [2], affinity was put at a Ki of 0.047 µM.

`CN(C)CCCOc1ccc(Oc2ncnc3ccccc23)c(C(=O)N(C)C)c1` had a Ki in experiment [2] of 1.02 µM.

For the compound `CN(C)CCCOc1ccc(OCc2ccccc2Cl)c(CN(C)C)c1`, the inhibition constant (Ki) in experiment [2] came to 0.135 µM.

With `CN(C)Cc1cc(OCCCCl)ccc1Nc1ncnc2ccccc12`, the Activity in experiment [1] worked out at 49%.

With `CN(C)C(=O)c1cc(OCc2ccc(F)cc2)ccc1OCc1ccccc1Cl`, the Activity in experiment [1] turned out to be 33%.

Consider `COc1ccccc1COc1ccc(OCCCN2CCOCC2)cc1C(=O)N(C)C`, for which, in experiment [1], the Activity was 73.4%. The compound further displayed a Ki in experiment [2] of 1.39 µM.

Consider `CN(C)C(=O)c1cc(OC2CCCCO2)ccc1OCc1ccccc1Cl` (stereo unspecified), for which, in experiment [1], the Activity came out at 17%.

`CN(C)C(=O)c1cc(OCCC2CCCN2C)ccc1OCc1ccccc1Cl` (stereo unspecified) registered a Ki in experiment [2] of 1.81 µM.

On to `CCOC(=O)CCCOc1ccc(Nc2ncnc3ccccc23)c(CN(C)C)c1`, for which the Activity in experiment [1] was 28%.

With `CN(C)CCCOc1ccc(Nc2ncnc3ccccc23)c(CN(C)C)c1`, the values for the Activity in experiment [3] and in experiment [4] were -15% and -2%, respectively. The affinity in experiment [2] corresponds to a Ki of 0.018 µM.

On to `COc1ccccc1COc1ccc(OCCCN2CCCCC2)cc1C(=O)N(C)C`, for which, in experiment [2], the Ki worked out at 0.012 µM. This counts as double-digit nanomolar.

For `CN(C)Cc1cc(O)ccc1Nc1ncnc2ccccc12`, the Activity in experiment [1] worked out at 11.6%.

In turn, `CN(C)Cc1cc(OCCCN2CCCCC2)ccc1OCc1ccccc1Cl` had a Ki in experiment [2] of 0.0024 µM.
